Data taken from patent publication US20060239913A1, “Peptide conjugate for magnetic resonance imaging” (priority 2003, published 2006).
pIC50: −log10 of the molar value.

What was measured:
human MMP-1 [1] = target: T1, human MMP-1 (Homo sapiens, UniProt P03956); test: In vitro MMP inhibition assay (fluorimetric), MMP-1; type: biochemical; conditions: for inhibitory activity on MMP-1 (in words): concentration of 1.0E-05 M; for % inhibition of control values: mean of duplicate
T1 construct: endogenous in cells; host or cells: human rheumatoid synovial fibroblast
T1 sequence (P03956 100-469): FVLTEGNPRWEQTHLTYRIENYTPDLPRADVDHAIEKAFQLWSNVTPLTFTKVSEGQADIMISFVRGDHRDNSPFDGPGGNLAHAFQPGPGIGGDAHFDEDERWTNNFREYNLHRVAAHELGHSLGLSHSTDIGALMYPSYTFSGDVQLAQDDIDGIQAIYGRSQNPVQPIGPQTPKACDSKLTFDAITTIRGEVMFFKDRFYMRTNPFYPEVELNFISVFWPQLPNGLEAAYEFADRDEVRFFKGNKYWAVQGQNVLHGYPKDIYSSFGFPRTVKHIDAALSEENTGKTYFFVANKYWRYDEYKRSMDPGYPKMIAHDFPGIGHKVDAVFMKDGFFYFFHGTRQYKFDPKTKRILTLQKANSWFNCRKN
Protocol: (§1) The ability of compound B or the corresponding peptide hydroxamate to inhibit MMP-1, MMP-2 or MMP-3 activity was tested in vitro, on human enzymes. The reaction was based on the formation of a fluorescent compound produced after MMP-cleavage of a substrate (see table 1 for experimental conditions). Briefly, compound B or the peptide alone was added at 3 different concentrations to a buffer containing the MMP to test. For the control sample, the contrast agent or the peptide was replaced by water. After a pre-incubation period of 30 min at 37° C., the fluorescence intensity was measured using a microplate reader (GeminiXS, Molecular Devices), in order to detect any compound interference with the fluorimetric assay (═F1). The enzymatic reaction was then initiated by the addition of the MMP substrate and the mixture was again incubated at 37° C. After a pre-determined time, a second fluorescent measurement was performed (═F2). The enzyme activity was determined by subtracting the signal F1 from F2, and the results were expressed as a percent inhibition of the control enzyme activity.

human MMP-2 [2] = target: T2, human MMP-2 (Homo sapiens, UniProt P08253); test: In vitro MMP inhibition assay (fluorimetric), MMP-2; type: biochemical; conditions: for inhibitory activity on MMP-2 (in words): concentration of 1.0E-05 M; for % inhibition of control values: mean of duplicate
T2 construct: endogenous in cells; host or cells: human rheumatoid synovial fibroblast
T2 sequence (P08253 110-660): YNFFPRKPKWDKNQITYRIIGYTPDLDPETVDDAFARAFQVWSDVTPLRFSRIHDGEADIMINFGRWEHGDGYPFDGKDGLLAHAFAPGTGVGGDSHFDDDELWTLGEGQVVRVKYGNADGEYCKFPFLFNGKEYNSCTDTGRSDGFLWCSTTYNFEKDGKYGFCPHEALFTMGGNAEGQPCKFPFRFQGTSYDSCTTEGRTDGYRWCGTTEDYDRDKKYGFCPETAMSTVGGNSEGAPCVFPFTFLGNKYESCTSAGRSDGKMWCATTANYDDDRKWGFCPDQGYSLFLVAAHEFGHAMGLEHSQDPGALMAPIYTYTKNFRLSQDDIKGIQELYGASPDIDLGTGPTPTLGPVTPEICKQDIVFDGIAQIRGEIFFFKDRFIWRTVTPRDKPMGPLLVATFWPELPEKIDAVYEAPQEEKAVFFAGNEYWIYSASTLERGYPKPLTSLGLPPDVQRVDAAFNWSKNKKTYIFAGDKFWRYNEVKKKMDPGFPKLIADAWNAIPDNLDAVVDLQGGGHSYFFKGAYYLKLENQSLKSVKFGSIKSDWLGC
Protocol: as §1, with “The” for “The ability of compound B or the corresponding peptide hydroxamate to inhibit MMP-1, MMP-2 or MMP-3 activity was tested in vitro, on human enzymes. The”, “Briefly, compound B or the peptide alone was added at 3 different concentrations to a buffer containing the MMP to test.” left out

[3] = Biodistribution assay in ApoE-KO mice (Gd by ICP-MS); type: in vivo; conditions: C57Bl/6 background, mouse, plasma, iv, 100 μmol Gd/kg, i.v., read-out: half-life of elimination in plasma
Protocol: (§2) Animals—the tissue distribution of compound B, when compared to Gd-DOTA, was performed in ApoE-KO mice in a 100% C57Bl/6 background. The animals were bred and housed in the Animal Experiment Unit of the Center of Molecular and Vascular Biology, Leuven, Belgium, and had free access to food and water.
(§3) ApoE-KO mice of 11-12 weeks were fed a cholesterol-rich Western-type diet (Tecklad, Madison, USA) for 4 months. This model of atherosclerosis was fully characterized: it contained extensive atherosclerotic plaques in the heart and aortic arch, where the plaques occupied 34% of the total lumen area. […] Biodistribution—After the diet period, animals were matched for sex and body weight. compounfd B or Gd-DOTA was administered intravenously via the tail vein (n=7/compound), at a clinical dose of 100 μmol Gd/kg. 60 min post-injection, the animals were anaesthetized and blood was obtained via eye bleeding. The mice were then subjected to a transcardiac perfusion with heparinized saline, in order to clear the intravascular compartment from any residual circulating contrast agent. Muscle and different organs (kidney, liver) were removed, as well as some artery specimens (aortic arch, carotid arteries, thoracic aorta, abdominal aorta and femoral artery). Finally, an aliquot of the blood sample was centrifuged and the Gd^3+ contained in all the collected samples was quantified by induced coupled plasma—mass spectrometry (ICP-MS) after acidic mineralization.

ApoE-KO mice = test: as above; type: in vivo
Protocol: as §2, §3

[4] = system: artery slices originating from Watanabe Heritable Hyperlipidemic rabbits; test: Ex vivo MRI and Gd quantification on WHHL rabbit artery slices; conditions: for ex vivo MRI enhancement of the sections / amount of Gd in the sections by ICP-MS (mean value): after 1 h; for ex vivo MRI enhancement of the sections: 3 h or 18 h incubation; for amount of Gd in the sections by ICP-MS (mean value): 3 h or 18 h incubation at 5×10^−4 M Gd, no washing
Source text: Specimen preparation—Watanabe Heritable Hyperlipidemic rabbits (CAP, Olivet, France), which develop hypercholesterolemia and subsequent atherosclerosis due to a genetic deficiency of LDL receptors, were profoundly anaesthetized. After their sacrifice by exsanguination, the arterial tree, comprising the aortic arch with the beginning of the efferent arteries, as well as the thoracic aorta and the supra-renal abdominal aorta, was removed in one block and flushed with heparinized Krebs-Ringer Bicarbonate buffer (pH=7.4) in order to clean any remaining blood. The arterial specimen was then kept frozen at −20° C.; it was gently and extemporarily unfrozen for experimental purpose.
(§4) Finally, both rabbits and human atherosclerotic segments were cut in exactly 3.0 mm-thick sections, before their contact with the contrast medium and ex vivo imaging.
Ex vivo incubation—All the slices were deposited in a 24-wells culture plate. They were then incubated under stirring at 37° C., in 1.0 ml of Krebs-Ringer Bicarbonate buffer (pH=7.4), Gd-DOTA or compound B (at a Gd concentration of 5×10^−4 M). After pre-determined incubation periods of 1 h, 3 h or 18 h, the slices originating from the WHHL rabbits were either immediately imaged, or subjected to a washing during 30 min, 1 h or 3 h (n=3 for each condition) in 10.0 ml of Krebs-Ringer bicarbonate buffer, with the medium being replaced every hour. Regarding human samples, only the protocol which allowed the best differentiation between the compounds (i.e. an incubation period of 18 h, followed by a washing of 30 min) was applied. Afterwards, all the slices were drained and prepared for ex vivo imaging. Further the protocol was applied both regarding to lesional plaques and not lesional plaques specimens.
Specificity testing—To additionally test the specificity of the compound B uptake, we repeated the ex vivo 18 h-incubation with a new set of WHHL rabbit atherosclerotic slices which were previously incubated during 30 min with the hydroxamate peptide, at a 10 times higher concentration than COMPOUND B (i.e. 5×10^−3 M). The samples were subsequently washed during 30 min, as previously described.
Detection of the contrast media by ex vivo imaging and Gd quantification—For ex vivo MRI, the aortic slices were transferred in a new 24-wells plate and embedded in a semi-solid agar-agar gel (0.8% m/v) at room temperature. Images were performed on a 2.35 T MRI system (Biospec, Bruker, Germany), using a 7 cm inner diameter birdcage coil and a 200 mT/m insert gradient. A 3D T1w SNAP sequence was acquired with following parameters (TR/TE/α=20 ms/4.2 ms/75°, Matrix 256*256*16, resolution 235*175*1000 μm^3, duration 21′49″) to have a compromise between resolution, short duration for screening and sections localization. Finally, the gel was removed from the aortic segments and the Gd contained in each precisely weighed sample was quantified by ICP-MS after acidic mineralization.

[5] = system: atherosclerotic human sections (carotid artery); test: Ex vivo MRI and Gd quantification on human carotid endarterectomy sections; conditions: 18 h incubation, 30 min washing
Protocol: Samples of fresh carotid artery were obtained from patients (n=21) undergoing carotid endarterectomy. Specimen consisted of the common carotid artery, as well as the internal and external carotid arteries. The excised plaques were rinsed in ice-cold saline and they were used in the 2-4 hours following surgery.
as §4
Ex vivo incubation—All the slices were deposited in a 24-wells culture plate. […] After pre-determined incubation periods of 1 h, 3 h or 18 h, the slices originating from the WHHL rabbits were either immediately imaged, or subjected to a washing during 30 min, 1 h or 3 h (n=3 for each condition) in 10.0 ml of Krebs-Ringer bicarbonate buffer, with the medium being replaced every hour. […]
Detection of the contrast media by ex vivo imaging and Gd quantification—For ex vivo MRI, the aortic slices were transferred in a new 24-wells plate and embedded in a semi-solid agar-agar gel (0.8% m/v) at room temperature. […] Finally, the gel was removed from the aortic segments and the Gd contained in each precisely weighed sample was quantified by ICP-MS after acidic mineralization.

human MMP-3 [6] = target: T3, human MMP-3 (Homo sapiens, UniProt P08254); test: In vitro MMP inhibition assay (fluorimetric), MMP-3; type: biochemical; conditions: for % inhibition of control values: mean of duplicate
T3 construct: made in house; host or cells: Sf9 insect cells
T3 sequence (P08254 100-477): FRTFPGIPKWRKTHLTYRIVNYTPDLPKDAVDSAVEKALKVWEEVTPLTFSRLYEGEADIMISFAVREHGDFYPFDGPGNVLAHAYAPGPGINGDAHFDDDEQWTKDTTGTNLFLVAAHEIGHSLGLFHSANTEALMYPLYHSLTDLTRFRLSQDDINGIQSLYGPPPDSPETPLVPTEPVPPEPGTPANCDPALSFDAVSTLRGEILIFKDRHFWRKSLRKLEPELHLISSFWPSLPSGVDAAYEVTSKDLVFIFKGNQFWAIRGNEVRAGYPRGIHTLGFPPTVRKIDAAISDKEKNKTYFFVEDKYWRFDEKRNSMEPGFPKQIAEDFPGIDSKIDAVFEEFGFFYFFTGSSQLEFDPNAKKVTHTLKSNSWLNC
Protocol: as §1

human MMP-1 [7] = target: T1, human MMP-1; conditions: reported value; cited from earlier work
human MMP-2 [8] = target: T2, human MMP-2; conditions: reported value; cited from earlier work
human MMP-3 [9] = target: T3, human MMP-3; conditions: reported value; cited from earlier work

Compound: CC(C)C[C@@H](NC(=O)[C@@H]1CCCN1C(=O)CNC(=O)c1ccc(NC(=S)Nc2ccc(CCC(C(=O)O)N3CCN(CC(=O)O)CCN(CC(=O)O)CCN(CC(=O)O)CC3)cc2)cc1)C(=O)N[C@@H](C)C(=O)NO (some centres unmarked) [Compound B]
- inhibitory activity on MMP-1 (in words) (human MMP-1 [1]): effective
- inhibitory activity on MMP-2 (in words) (human MMP-2 [2]): effective
- half-life [3]: 15 min
- concentration in the arterial wall compared to Dotarem (ApoE-KO mice; artery specimen, 60 min post-injection, p<0.01): 3-3.5 times
- ex vivo MRI enhancement after inhibition/competition with free peptide ([4]; 30 min preliminary incubation with free peptide 5×10^−3 M, then 18 h incubation, 30 min washing): very faint enhancement
- ex vivo MRI enhancement of the sections [4]: strong but more delineated enhancement
- amount of Gd in the sections by ICP-MS (mean value) [4]: 5-11 nmol/section
- mean Gd concentration after washing ([4]; incubated 3 h or 18 h, after 30 min and 1 h of washing): 1-8 nmol/section
- enhancement of atherosclerotic human sections (MRI ex vivo and Gd quantification) [5]: able to enhance

Compound: O=C([O-])CN1CCN(CC(=O)[O-])CCN(CC(=O)O)CCN(CC(=O)[O-])CC1.[Gd+3] [Gd-DOTA, gadoteric acid]
- half-life of elimination in plasma (ApoE-KO mice; i.v.): 15 min
- Gd concentration after first washing step (mean value) ([4]; after 30 min washing): < 0.8 nmol/section
- ex vivo MRI enhancement of the sections [4]: strong, but diffuse, enhancement
- amount of Gd in the sections by ICP-MS (mean value) [4]: 3-9 nmol/section
- enhancement of atherosclerotic human sections (MRI ex vivo and Gd quantification) [5]: not

Compound: p-aminobenzoyl-Gly-Pro-D-Leu-D-Ala-NHOH [Peptide]
- % inhibition of control values (human MMP-1 [1]; MMP-1, test concentration 1.0E−05 M): 46%
- % inhibition of control values (human MMP-1 [1]; MMP-1, test concentration 1.0E−07 M): 10%
- % inhibition of control values (human MMP-1 [1]; MMP-1, test concentration 1.0E−09 M): 9%
- inhibitory activity on MMP-1 (in words) (human MMP-1 [1]): effective
- % inhibition of control values (human MMP-2 [2]; MMP-2, test concentration 1.0E−04 M): 94%
- % inhibition of control values (human MMP-2 [2]; MMP-2, test concentration 1.0E−05 M): 68%
- % inhibition of control values (human MMP-2 [2]; MMP-2, test concentration 1.0E−07 M): 5%
- inhibitory activity on MMP-2 (in words) (human MMP-2 [2]): effective
- inhibitory activity on MMP-3 (in words) (human MMP-3 [6]): no activity
- % inhibition of control values (human MMP-3 [6]; MMP-3, test concentration 1.0E−05 M): 8%
- % inhibition of control values (human MMP-3 [6]; MMP-3, test concentration 1.0E−07 M): 4%
- % inhibition of control values (human MMP-3 [6]; MMP-3, test concentration 1.0E−09 M): 0%
- pIC50 (human MMP-1 [7]): 6.00
- pIC50 (human MMP-2 [8]): 4.52
- pIC50 (human MMP-3 [9]): 3.82
